From patent US10059945B2, “Methods of controlling cell fate and consequences for disease” (THE GENERAL HOSPITAL CORPORATION, priority 2014, dated 2018)

Tested on: reprogrammable MEFs
Assay: alkaline phosphatase-positive (AP+) transgene-independent iPSC colony formation
Type: cell-based, mouse
Conditions: 4-factor reprogrammable cells, doxycycline
Method: Transfections of RepMEFs with siRNAs were performed in 12-well plates at the time of dox administration. Per 12-well plate, 2 ul of Lipofectamine™ 2000 was added to 75 ul of Optimem™ (Life Technologies™) and 1.5 ul of siRNA (esiRNA, Sigma™) was added to 75 ul of Optimem™; both mixtures were separately incubated at room temperature for 5 minutes, then combined and incubated for another 15 minutes before adding the solution to the reprogramming media (normal media lacking antibiotics). After overnight incubation, the transfection media was replaced with regular reprogramming media.

Structure (SMILES): Cc1c[nH]c(-c2cnc(NCCNc3ccc(C#N)cn3)nc2-c2ccc(Cl)cc2Cl)n1 [Gsk3 inhibitor, CHIR99021]
- generation of AP+ iPSC colonies, small molecules vs knockdown alone: significantly enhanced

Structure (SMILES): O=C1O[C@H]([C@@H](O)CO)C(O)=C1O [ascorbic acid, L-Ascorbic acid]
- generation of AP+ iPSC colonies, small molecules vs knockdown alone: significantly enhanced
